Laboratory results: ChEMBL document CHEMBL4699496, “Exploring efficacy of natural-derived acetylphenol scaffold inhibitors for α-glucosidase: Synthesis, in vitro and in vivo biochemical studies” (Bioorg Med Chem Lett, 2020)
pIC50: −log10 of the molar value.

Assay: Inhibition of alpha-glucosidase (unknown origin)
Set-up: species or system Homo sapiens
Settings: for pIC50: read-out: IC50; call rule not given here

SMILES | pIC50 | IC50
CCCCC(=O)Oc1cc(O)c(C(=O)C(C)C)cc1C | 4.61 | –
CC(C)C(=O)c1ccc(OC(=O)CCl)cc1O | – | Not Active
CC(C)C(=O)c1cc(Br)c(OC(=O)CCl)cc1O | 3.84 | –
Cc1cc(C(=O)C(C)C)c(O)cc1OC(=O)CI | 5.37 | –
Cc1ccc(C(=O)Oc2c(C)cc(C(=O)C(C)C)c(O)c2Br)cc1 | 4.60 | –
CCC(=O)c1ccc(OC(=O)CI)cc1O | – | Not Active
CC(C)C(=O)Oc1ccc(C(=O)C(C)C)c(O)c1 | 4.14 | –
Cc1cc(C(=O)C(C)C)c(O)cc1OC(=O)CCl | 3.86 | –
CC(C)C(=O)c1cc(Br)c(O)cc1O | 4.54 | –
CCC(=O)c1cc(C)c(O)cc1O | – | Not Active
CCCCC(=O)c1cc(C)c(O)cc1O | – | Not Active
CC(C)C(=O)c1ccc(OC(=O)C(C)(C)C)cc1O | 4.48 | –
CCC(=O)Oc1cc(O)c(C(=O)C(C)C)cc1C | – | Not Active
CCCCCC(=O)c1ccc(OC(=O)CI)cc1O | 5.05 | –
Cc1cc(C(=O)C(C)C)c(O)cc1OC(=O)c1ccc(Br)cc1 | 4.58 | –
CCCCC(=O)c1ccc(O)cc1O | – | Not Active

Other lines, results leading:

pIC50 | IC50 | SMILES
– | Not Active | CC(=O)Oc1cc(O)c(C(=O)C(C)C)cc1C
4.45 | – | CCCCCCCC(=O)c1cc(C)c(O)cc1O
– | Not Active | CC(=O)Oc1cc(O)c(C(=O)C(C)C)cc1Br
4.51 | – | Cc1cc(C(=O)C(C)C)c(O)c(Br)c1OC(=O)CCl
5.73 | – | Cc1cc(C(=O)C(C)C)c(O)c(Br)c1OC(=O)C(C)(C)C
4.81 | – | Cc1cc(C(=O)C(C)C)c(O)c(Br)c1OC(=O)c1ccc(F)cc1
5.14 | – | O=c1c(-c2ccc(O)cc2)coc2cc(O)cc(O)c12 [GENISTEIN]
4.68 | – | Cc1cc(C(=O)C(C)C)c(O)c(Br)c1O
5.75 | – | CCCCCCC(=O)c1cc(C)c(OC(=O)CI)cc1O
4.92 | – | Cc1cc(C(=O)C(C)C)c(O)c(Br)c1OC(=O)CBr
5.23 | – | CCCCCCC(=O)Oc1cc(O)c(C(=O)C(C)C)cc1C
5.41 | – | CCCCCC(=O)c1cc(C)c(OC(=O)CI)cc1O
5.25 | – | CCCCC(=O)c1cc(C)c(OC(=O)CI)cc1O
